Source: patent publication US7268154B2, “Substituted triazole compounds” (Hoffman-La Roche Inc., priority 2005, dated 2007)

Target: T1, NK-3 receptor (HEK293 stably expressing NK3) (Homo sapiens, UniProt P29371)
T1 construct: expressed in transfected cells
T1 sequence (P29371 1-465): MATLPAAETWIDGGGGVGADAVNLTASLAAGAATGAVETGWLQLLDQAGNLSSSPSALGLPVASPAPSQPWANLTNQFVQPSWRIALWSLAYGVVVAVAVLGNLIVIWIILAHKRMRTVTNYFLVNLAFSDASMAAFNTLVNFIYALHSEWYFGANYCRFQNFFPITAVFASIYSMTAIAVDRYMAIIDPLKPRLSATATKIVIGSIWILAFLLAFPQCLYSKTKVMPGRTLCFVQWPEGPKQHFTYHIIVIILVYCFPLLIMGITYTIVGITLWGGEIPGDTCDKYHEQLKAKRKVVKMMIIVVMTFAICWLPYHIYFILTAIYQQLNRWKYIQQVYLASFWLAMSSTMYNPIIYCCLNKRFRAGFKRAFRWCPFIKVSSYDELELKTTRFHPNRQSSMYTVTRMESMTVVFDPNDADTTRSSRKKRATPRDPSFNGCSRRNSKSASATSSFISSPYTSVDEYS
Assay: Calcium mobilization assay (FLIPR): enhancement of the Neurokinin B agonist response
Format: cell-based
Conditions: for EC50: agonist Neurokinin B with or without enhancer, Fluo-4 fluorescence, read-out: EC50 (efficacy as allosteric positive modulator of NK-3 receptor); for fold increase of the Neurokinin B agonistic effect: value in parentheses after EC50
Experimental: Calcium mobilization assay: HEK293 stably expressing NK3 were seeded at a density of 50,000 cells into poly-D-lysine coated 96-well blackwall, clear-bottom microtiter plates (Becton Dickinson Labware, Bedford, Mass.). One day later, the medium was removed, and 100 μl loading medium [HBSS without phenol red, supplemented with 20 mM HEPES-acid, and 2 μM Fluo-4AM solubilized in 0.5 mM Pluronic F-127/DMSO (Molecular Probes, Leiden, The Netherlands)] was added. Cells were loaded for 1 h at 37° C., washed twice with 150 μl assay buffer (loading buffer without Fluo-4 AM), and then 260 μl assay buffer was added. Cells were further pre-incubated at room temperature before adding the agonist Neurokinin B with or without enhancer in 50 μl assay buffer and then measured on a T-channel fluorimetric imaging plate reader (FLIPR, Molecular Devices, Sunnyvale, Calif.). Maximum change in fluorescence over baseline was used to determine agonist response.
The efficacy as allosteric positive modulators of neurokinin 3 (NK-3) receptors is given in the table below as EC50 and fold increase of the Neurokinin B agonistic effect. The EC50 of preferred compounds is <5.0 μM.

| SMILES | EC50 | fold increase of the Neurokinin B agonistic effect |
| --- | --- | --- |
| O=C(Cc1c(F)cccc1Cl)N[C@H]1CC[C@@H](n2cc(C(=O)Nc3ccccc3)nn2)CC1 [Example 19, 1-{cis-4-[2-(2-Chloro-6-fluoro-phenyl)-acetylamino]-cyclohexyl}-1H-[1,2,3]triazole-4-carboxylic acid phenylamide] | 1800 nM | 1.6 fold |
| O=C(N[C@H]1CC[C@@H](n2cc(C(=O)N3CCCC3)nn2)CC1)c1ccc(Cl)cc1 [Example 9, 4-Chloro-N-{cis-4-[4-(pyrrolidine-1-carbonyl)-[1,2,3]triazol-1-yl]-cyclohexyl}-benzamide] | 2300 nM | 2.2 fold |
| Cc1cccc(-c2cccc(C(=O)N[C@H]3CC[C@@H](n4cc(C(=O)N5CCCC5)nn4)CC3)c2)c1 [Example 2, 3′-Methyl-biphenyl-3-carboxylic acid {cis-4-[4-(pyrrolidine-1-carbonyl)-[1,2,3]triazol-1-yl]-cyclohexyl}-amide] | 200 nM | 1.5 fold |
| COc1ccccc1C(=O)N[C@H]1CC[C@@H](n2cc(C(=O)N3CCCC3)nn2)CC1 [Example 6, 2-Methoxy-N-{cis-4-[4-(pyrrolidine-1-carbonyl)-[1,2,3]triazol-1-yl]-cyclohexyl}-benzamide] | 4200 nM | 3.2 fold |
| O=C(Cc1c(F)cccc1Cl)N[C@H]1CC[C@@H](n2cc(C(=O)N3CCCC3)nn2)CC1 [Example 1, 2-(2-Chloro-6-fluoro-phenyl)-N-{cis-4-[4-(pyrrolidine-1-carbonyl)-[1,2,3]triazol-1-yl]-cyclohexyl}-acetamide] | 3700 nM | 2.3 fold |
| Cc1cc(Cl)ccc1OC(C)C(=O)N[C@H]1CC[C@@H](n2cc(C(=O)N3CCCC3)nn2)CC1 (relative stereo) [Example 4, 2-(4-Chloro-2-methyl-phenoxy)-N-{cis-4-[4-(pyrrolidine-1-carbonyl)-[1,2,3]triazol-1-yl]-cyclohexyl}-propionamide] | 560 nM | 1.7 fold |
| COc1ccc(C(=O)N[C@H]2CC[C@@H](n3cc(C(=O)N4CCCC4)nn3)CC2)cc1OC [Example 7, 3,4-Dimethoxy-N-{cis-4-[4-(pyrrolidine-1-carbonyl)-[1,2,3]triazol-1-yl]-cyclohexyl}-benzamide] | 4500 nM | 5.6 fold |
| O=C(N[C@H]1CC[C@@H](n2cc(C(=O)N3CCCC3)nn2)CC1)c1cccc(-c2ccc(F)cc2)c1 [Example 3, 4′-Fluoro-biphenyl-3-carboxylic acid {cis-4-[4-(pyrrolidine-1-carbonyl)-[1,2,3]triazol-1-yl]-cyclohexyl}-amide] | 860 nM | 1.6 fold |
| O=C(c1cn([C@H]2CC[C@@H](NC(=O)C3(c4c(F)cccc4Cl)CCCC3)CC2)nn1)N1CCCC1 [Example 17, 1-(2-Chloro-6-fluoro-phenyl)-cyclopentanecarboxylic acid {cis-4-[4-(pyrrolidine-1-carbonyl)-[1,2,3]triazol-1-yl]-cyclohexyl}-amide] | 770 nM | 1.8 fold |
